{"source": "patent US9630964B2", "about": "“Fluoro-9-methyl-β-carbolines” (priority 2013, dated 2017)", "key": {"[1]": {"tested_on": "BDNF (brain-derived neurotrophic factor)", "test": "Quantitative RT-PCR, relative gene expression of BDNF in SH-SY5Y cells", "type": "cell-based, human", "settings": "30 μM each, SH-SY5Y", "experimental": "(§1) SH-SY5Y cell lines, which were provided by the institute of human genetics of university hospital Eppendorf and which they in turn received from Braunschweig resource center, were used again for the RT-PCR experiments (reverse transcriptase polymerase chain reaction) carried out for this purpose.\n(§2) The cells were incubated in MEM (Minimum essential medium, Life Technologies) with 10% FCS (fetal calf serum, Biochrom AG) and penicillin/streptomycin (Biochrom AG). The cells were seeded with a density of 1×10^5 cells/cm^2 in 25 cm^2 cell culture bottles (Falcon, cell culture treated) with 5 mL medium. Stock solutions of 10 mmol/L of compounds 9-methyl-β-carboline (AC-002 or 9MβC) and 6-fluoro-9-methyl-β-carboline (AC-102 or 6F9MβC), respectively were prepared in distillated water and sterile filtered. One day after the cell seeding the compounds were added in corresponding amounts (5-55 μL) to reach final concentration in the medium of 10 μM, 20 μM and 30 μM for 6F9MβC and 30 μM, 50 μM and 70 μM for 9MβC. The references received only the corresponding amount of solvent (distilled water). The medium was changed once a week.\n(§3) The cells were regularly microscopically examined and harvest after 2, 7 and 14 days of incubation time, washed with PBS and immediately frozen at −80° C.\n(§4) The RNA-isolation was done with the HighPure RNA Isolation kit of the company Roche. […] The concentration of RNA was measured with nanoDrop spectrometer and the RNA integrity was determined with the aid of the Bioanalyzer 2100 (Agilent). […]\n(§5) After the reaction, this run was diluted 1:4 and thereof 2 μL per each quantitative RT-PCR were used. This was performed in a LightCycler 480 under standard conditions in the SybrGreen format with annealing temperatures determined for each primer individually. […]\nThe specificity was verified by melting curve analysis and subsequent gel electrophoresis. For each PCR the PCR efficiency and the Cq value was determined by the program LinRegPCR and these were used in further calculations. […] Every measured value from FIGS. 5A-5I represents a mean value of 3 independent biologic samples. […]"}, "[2]": {"tested_on": "Lif (Leukemia inhibitory factor)", "test": "Quantitative RT-PCR, relative gene expression of Lif in SH-SY5Y cells", "type": "cell-based, human", "settings": "30 μM each", "experimental": "as §1, §2, §3\nThe RNA-isolation was done with the HighPure RNA Isolation kit of the company Roche. This isolation includes a DNaseI digestion. The concentration of RNA was measured with nanoDrop spectrometer and the RNA integrity was determined with the aid of the Bioanalyzer 2100 (Agilent). By using random hexamer primers, protector RNA inhibitor (Roche) and transcriptor reverse transcriptase (fermentas), 300 ng RNA were transcribed into cDNA per each sample.\nAfter the reaction, this run was diluted 1:4 and thereof 2 μL per each quantitative RT-PCR were used. This was performed in a LightCycler 480 under standard conditions in the SybrGreen format with annealing temperatures determined for each primer individually. If possible, exon spanning primers were used.\nThe specificity was verified by melting curve analysis and subsequent gel electrophoresis. For each PCR the PCR efficiency and the Cq value was determined by the program LinRegPCR and these were used in further calculations. B2M (β2-microglobulin) was identified from multiple reference genes to be suitable for examination conditions. All results are results relative to the corresponding reference conditions, at which only solvent was administered for the specified period of time (i.e. 2 days, 7 days or 14 days). In FIGS. 5A to 5I are also relative gene expressions (relative to reference conditions) presented. Here, the 2-day exposition is presented in light grey, the 7-day exposition in dark grey and the 14-day exposition in black. Every measured value from FIGS. 5A-5I represents a mean value of 3 independent biologic samples.\nAnalogous to example 4 RT-PCR experiments with the inventive active agent 7-fluoro-9-methyl-β-carboline (7F9MβC) were also performed for some important cellular factors. The experimental procedure was here identical to the experiments with 6-fluoro-9-methyl-β-carboline and 9-methyl-β-carboline. Here the same (like for 6F9MβC) final concentrations of 30 μM, 50 μM and 70 μM 7F9MβC for the culture medium were employed. The examined factors were BDNF (brain-derived neurotrophic factor), Lif (Leukemia inhibitory factor), DRD2S (short variant of dopamine receptor subtype 2) as well as DKK1 (Dickkopf-related protein 1). The same primers, that were already listed for the respective target genes in example 4 (Tab. 1) were used. As already noted, especially BDNF and Lif belongs to the most important factors for cellurar repair processes after traumas in the inner ear."}, "[3]": {"tested_on": "BTG2 (B-cell translocation gene 2)", "test": "Quantitative RT-PCR, relative gene expression of BTG2 in SH-SY5Y cells", "type": "cell-based, human", "settings": "10 μM 6F9MβC, except after 2-day exposition", "experimental": "as §1\n(§6) The cells were incubated in MEM (Minimum essential medium, Life Technologies) with 10% FCS (fetal calf serum, Biochrom AG) and penicillin/streptomycin (Biochrom AG). The cells were seeded with a density of 1×10^5 cells/cm^2 in 25 cm^2 cell culture bottles (Falcon, cell culture treated) with 5 mL medium. […]\nas §4, §5\n(§7) The specificity was verified by melting curve analysis and subsequent gel electrophoresis. For each PCR the PCR efficiency and the Cq value was determined by the program LinRegPCR and these were used in further calculations. […]"}, "[4]": {"tested_on": "Cbln (Cerebellin 1 precursor protein)", "test": "Quantitative RT-PCR, relative gene expression of Cbln in SH-SY5Y cells", "type": "cell-based, human", "settings": "30 μM each, except after 2-day exposition", "experimental": "as §1, §6, §4, §5, §7"}, "quotient Bax/Bcl2": {"tested_on": "quotient Bax/Bcl2", "test": "Quantitative RT-PCR, quotient Bax/Bcl2 (apoptosis marker) in SH-SY5Y cells", "type": "cell-based, human", "settings": "30 μM each, except after 2-day exposition", "experimental": "as §1, §6, §4, §5, §7"}, "hearing threshold": {"tested_on": "hearing threshold", "test": "Acoustically evoked potentials: hearing threshold after acoustic trauma", "type": "in vivo", "settings": "guinea pig, total 0.18 mg per ear", "experimental": "To trigger an acoustic trauma, guinea pigs were anesthetized with 60 mg/kg ketamine and 8 mg/kg xylazine. Then Bepanten ointment (Bayer) was administered to the eyes and the animal was put in a soundproof chamber. A calibrated speaker was placed directly above the head of the animal, wherein it was set to emit a half octave band, centered around 8 kHz, with a volume of 110 dB for duration of 30 minutes.\nAs measure for evaluation of the hearing threshold of the guinea pig acoustically evoked potentials were measured. Therefore, the electrophysiological activity of the nerve cells in the brain stem that forward impulses from the inner ear was derived after sonication of the ear with 8, 11.3, 16, 22.6 and 32 kHz. The sonification was carried out ascendingly from 0 dB to 90 dB in single steps of 5 dB.\nThe measurement was carried out 3 days before the acoustic trauma (D-3), 30 minutes after the acoustic trauma (D0) as well as 14 days after the acoustic trauma (D14).\nPer animal one ear was not treated and used as intra-individual control (hierin partly abbreviated to “contr.”) and the second ear was treated with 6-fluoro-9-methyl-β-carboline. Therefore, one hour after the acoustic trauma a dose of 0.12 mg 6-fluoro-9-methyl-β-carboline (in a hydrogel as vehicle) was administered intratympanically. 3 days after the acoustic trauma a further intratympanic administration of 0.06 mg 6-fluoro-9-methyl-β-carboline was carried out. The measurements were conducted on four guinea pigs (n=4).\nAfterwards, the remaining shift of hearing threshold (also named as permanent shift of hearing threshold) was determined from the measured values before the acoustic trauma (D-3) and after 14 days (D14). From the measured values directly after the acoustic trauma (D0) and after 14 days (D14) the recovery from the trauma (D0-D14) was also determined.\nAnalogous to the above performed experiments with 6-fluoro-9-methyl-β-carboline, also corresponding experiments with 9-methyl-β-carboline were performed. The experimental procedure was nearly identical, wherein of course 9-methyl-β-carboline instead of 6-fluoro-9-methyl-β-carboline was used. The total dose of 9-methyl-β-carboline was here 0.2 mg and 0.35 mg per ear, respectively."}, "CREB": {"tested_on": "CREB", "test": "Examination on cellular level: concentration of CREB", "type": "cell-based"}, "[5]": {"settings": "guinea pig, in vivo", "method": "For better evaluation of half times of 9-methyl-β-carboline (9MβC), 6-fluoro-9-methyl-β-carboline (6F9MβC) and 7-fluoro-9-methyl-β-carboline (7F9MβC) in animal organism and more precisely in perilymph (the notified site of action), experiments with guinea pigs were conducted. Therefore, the respective active agent (in total 1.4 mg active agent per ear), packed in 40 μl of a hydrogel (18% Poloxamer 407 and 0.6% alginate), was administered at once in front of the membrane of the round window of narcotized guinea pigs. […] After expiry of the desired time (20 min, 2 h, 8 h or 24 h), each time 5 μL perilymph were removed under anesthesia from the top of the cochlea (apex). Subsequently, the animal was killed. Per each time (20 min, 2 h, 8 h or 24 h) measured values were taken of at least ears and averaged.\nThe concentration of the corresponding active agent in perilymph samples was determined by high-performance liquid chromatography (HPLC, partly also named as high-pressure liquid chromatography) and measurement of auto fluorescence of the respective active agent. For HPLC the eluent consisted to 45% of 90% acetonitrile and to 55% of ammonium acetate (40 mM, pH<5). The flow rate was 0.4 mL/min and injection volume was 10 μL. Each sample was diluted with 60% methanol, if the signal was too strong. After each run the injection needle was washed with 100% isopropanol. The detection limit was 20 fmol/L.\nFrom the determined active agent concentrations the elimination half times were then calculated."}}, "data": [{"smiles": "Cn1c2ccc(F)cc2c2ccncc21", "note": "[6F9MβC, 6-fluoro-9-methyl-β-carboline]", "values": [{"measurement": "BDNF expression relative to expression induced by 9MβC", "setting": "[1]", "value": "approximately twice as high"}, {"measurement": "Lif expression relative to expression induced by 9MβC", "setting": "[2]; 2-day exposition", "value": "approximately three times as high"}, {"measurement": "Lif expression relative to expression induced by 9MβC", "setting": "[2]; 7-day exposition", "value": "slightly lower"}, {"measurement": "Lif expression relative to expression induced by 9MβC", "setting": "[2]; 14-day exposition", "value": "approximately twice as high"}, {"measurement": "BTG2 expression compared to the highest concentration of 9MβC", "setting": "[3]", "value": "comparable"}, {"measurement": "Cbln expression relative to expression induced by 9MβC", "setting": "[4]", "value": "approximately 1.5 times"}, {"measurement": "quotient Bax/Bcl2 compared to 9MβC", "setting": "quotient Bax/Bcl2", "value": "significantly lower"}, {"measurement": "improved recovery of hearing threshold (D0-D14) vs untreated ear", "setting": "hearing threshold; 8 kHz", "value": "approximately 5 dB"}, {"measurement": "improved recovery of hearing threshold (D0-D14) vs untreated ear", "setting": "hearing threshold; 11.3 kHz", "value": "~25", "unit": "dB"}, {"measurement": "reduction of the hearing threshold (permanent shift D14-D-3) vs untreated control", "setting": "hearing threshold; 11.3 kHz", "value": "approximately 20 dB"}, {"measurement": "improved recovery of hearing threshold (D0-D14) vs untreated ear", "setting": "hearing threshold; 16 kHz", "value": "~20", "unit": "dB"}, {"measurement": "reduction of the hearing threshold (permanent shift D14-D-3) vs untreated control", "setting": "hearing threshold; 16 kHz", "value": "~30", "unit": "dB"}, {"measurement": "increase of the concentration of CREB (factor)", "setting": "CREB", "value": 8}, {"measurement": "elimination half time", "setting": "[5]", "value": "approximately 6.0 h"}]}]}
